Measurements taken from the NIST ThermoML archive (doi:10.1021/acs.jced.9b00780).
Numbers after ± are expanded uncertainties.

Tests used:
[1] = wn = mass fraction of the nth substance listed; details: 298.15 K, 100 kPa, Liquid, Vibrating tube method
[2] = refractive index (Na D-line) (dimensionless); wn = mass fraction of the nth substance listed; details: 298.15 K, 100 kPa, Liquid, Standard Abbe refractometry

## O=BOB([O-])OB([O-])OB=O.[Na+].[Na+] [sodium tetraborate] + O
[1]; w1 = 0.0308
  mass density: 1025.65 ± 0.63 kg/m3
[2]; w1 = 0.0308
  refractive index: 1.339 ± 0.003

## O=B[O-].[Na+] [sodium metaborate] + O
[1]; w1 = 0.2259
  mass density: 1267.8 ± 6.2 kg/m3
[2]; w1 = 0.2259
  refractive index: 1.3872 ± 0.0033
